In patent US11639350B2, “Heteroaryldihydropyrimidine derivatives and methods of treating hepatitis B infections” (Janssen Pharmaceutica NV, priority 2018, dated 2023):

How the values were obtained:
[1] = Cytotoxicity determination in HepG2.2.15 cells (CCK-8); assay type: cell-based; conditions: human, 6 days of compound treatment, CCK-8, highest concentration 100 μM
Summary of the method: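 CC50 is from CCK-8 absorbance (450 nm, 630 nm reference) after 2.5 h with reagent. Before that, compounds were applied for six days, top concentration 100 μM, eight threefold dilutions, one mid-course medium change, to stably HBV-integrated HepG2.2.15 cells plated at 5,000/well in 2% FBS.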

HBV = HBV inhibitory activity: HBV DNA in the culture medium of HepG2.2.15 cells by q-PCR; assay type: cell-based; conditions: Hepatitis B virus, HepG2.2.15, 144 h, HepG2.2.15 cells, 6 days of compound treatment, HBV DNA in culture medium by q-PCR, highest concentration 10 μM; read-out: EC50
Summary of the method: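 Supernatant HBV DNA quantified by q-PCR after a 6-day compound exposure, with one mid-course medium change, of HepG2.2.15 cells (stably integrated HBV; 40,000 per well, 2% FBS). Eight-point 3-fold series topped at 10 μM for antiviral EC50; separate plates of 5,000 cells per well with 100 μM top give CC50.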

Row | SMILES | CC50 at 6 days [1] [nM] | EC50 (HBV) [nM]
1 | COC(=O)C1=C([C@H]2CC[C@H](N(C)S(C)(=O)=O)CC2)NC(c2nccs2)=NC1c1ccc(F)cc1Cl (single isomer, unassigned) [Compound 388B, (trans)-Methyl 4-(2-chloro-4-fluorophenyl)-6-(4-(N-methylmethylsulfonamido)cyclohexyl)-2-(thiazol-2-yl)-1,4-dihydropyrimidine-5-carboxylate] | 27800 | 28
2 | CCOC(=O)C1=C([C@H]2CC[C@H](C(=O)O)CC2)NC(c2nccs2)=NC1c1cccc(F)c1Cl (single isomer, unassigned) [Compound 23, trans-4-(6-(2-Chloro-3-fluorophenyl)-5-(ethoxycarbonyl)-2-(thiazol-2-yl)-3,6-dihydropyrimidin-4-yl)cyclohexanecarboxylic Acid] | 47500 | 566
3 | CCOC(=O)C1=C(C2CCN(S(=O)(=O)c3cnn(CCCCC(=O)O)c3)CC2)NC(c2nccs2)=NC1c1ccc(F)c(F)c1Cl (centres unmarked) [Compound 463, 5-(4-((4-(6-(2-Chloro-3,4-difluorophenyl)-5-(ethoxycarbonyl)-2-(thiazol-2-yl)-3,6-dihydropyrimidin-4-yl)piperidin-1-yl)sulfonyl)-1H-pyrazol-1-yl)pentanoic acid] | 12200 | 31
4 | COC(=O)C1=C(C2CCN(C(=O)CO)CC2)NC(c2nccs2)=NC1c1ccc(F)cc1Cl (centres unmarked) [Compound 122, Methyl 4-(2-chloro-4-fluorophenyl)-6-(1-(2-hydroxyacetyl)-piperidin-4-yl)-2-(thiazol-2-yl)-1,4-dihydropyrimidine-5-carboxylate] | 5100 | 394
5 | COC(=O)C1=C([C@H]2CC[C@H](C(=O)OC)CC2)NC(c2nccs2)=NC1c1ccc(F)c(F)c1Cl (single isomer, unassigned) [Compound 288M, (trans)-Methyl 4-(2-chloro-3,4-difluorophenyl)-6-(4-(methoxycarbonyl)cyclohexyl)-2-(thiazol-2-yl)-1,4-dihydropyrimidine-5-carboxylate] | 20000 | 63
6 | COC(=O)C1=C([C@H]2CC[C@H](N(CC(=O)O)S(C)(=O)=O)CC2)NC(c2nccs2)=NC1c1ccc(F)cc1Cl (relative stereo) [Compound 139, 2-(N-(trans-4-(6-(2-chloro-4-fluorophenyl)-5-(methoxycarbonyl)-2-(thiazol-2-yl)-3,6-dihydropyrimidin-4-yl)cyclohexyl)methylsulfonamido)acetic Acid] | 75600 | 112
7 | CCOC(=O)C[C@H]1CC[C@H](C2=C(C(=O)OC)C(c3cccc(F)c3Cl)N=C(c3nccs3)N2)CC1 (relative stereo) [Compound 28, Methyl 4-(2-chloro-3-fluorophenyl)-6-(trans-4-(2-ethoxy-2-oxoethyl)-cyclohexyl)-2-(thiazol-2-yl)-1,4-dihydropyrimidine-5-carboxylate] | 49300 | 407
8 | COC(=O)C1=C([C@H]2CC[C@H](S(=O)(=O)NCCC(C)(C)O)CC2)NC(c2nccs2)=NC1c1ccc(F)c(F)c1Cl (stereo partly drawn) [Compound 358B, (trans)-Methyl 4-(2-chloro-3,4-difluorophenyl)-6-(4-(N-(3-hydroxy-3-methylbutyl)sulfamoyl)cyclohexyl)-2-(thiazol-2-yl)-1,4-dihydropyrimidine-5-carboxylate] | 12500 | 59
9 | COC(=O)C1=C(C2CCCN2S(C)(=O)=O)NC(c2nccs2)=NC1c1ccc(F)cc1Cl (single isomer, unassigned) [Compound 69C, Methyl 4-(2-chloro-4-fluorophenyl)-6-(1-(methylsulfonyl)-pyrrolidin-2-yl)-2-(thiazol-2-yl)-1,4-dihydropyrimidine-5-carboxylate] | 11900 | 448
10 | COC(=O)C1=C(C2CCN(S(=O)(=O)[C@H]3C[C@H](C(=O)O)C3)CC2)NC(c2nccs2)=NC1c1ccc(F)c(F)c1Br (relative stereo) [Compound 162, trans-3-((4-(−6-(2-Bromo-3,4-difluorophenyl)-5-(methoxycarbonyl)-2-(thiazol-2-yl)-3,6-dihydropyrimidin-4-yl)piperidin-1-yl)sulfonyl)cyclobutanecarboxylic Acid] | 34500 | 59
11 | COC(=O)C1=C([C@H]2CC[C@H](S(=O)(=O)N3CC[C@@H](C(=O)O)C3)CC2)NC(c2nccs2)=NC1c1ccc(F)c(F)c1Cl (stereo in doubt) [Compound 293C, (trans)-1-((4-((R)-6-(2-Chloro-3,4-difluorophenyl)-5-(methoxycarbonyl)-2-(thiazol-2-yl)-3,6-dihydropyrimidin-4-yl)cyclohexyl)-sulfonyl)pyrrolidine-3-carboxylic Acid] | 85700 | 150
12 | COC(=O)C1=C(C2CCN(S(=O)(=O)CCO)CC2)NC(c2nccs2)=NC1c1ccc(F)c(F)c1Cl (centres unmarked) [Compound 474, methyl 4-(2-chloro-3,4-difluorophenyl)-6-(1-((2-hydroxyethyl)sulfonyl)piperidin-4-yl)-2-(thiazol-2-yl)-1,4-dihydropyrimidine-5-carboxylate] | 18300 | 7
13 | COC(=O)C1=C(C2CCN(S(=O)(=O)C[C@H]3CC[C@H](C(=O)O)CC3)CC2)NC(c2nccs2)=NC1c1cccc(F)c1Cl (stereo partly drawn) [Compound 454, (trans)-4-(((4-(6-(2-Chloro-3-fluorophenyl)-5-(methoxycarbonyl)-2-(thiazol-2-yl)-3,6-dihydropyrimidin-4-yl)piperidin-1-yl)sulfonyl)methyl)-cyclohexanecarboxylic Acid] | 12000 | 37
14 | CCOC(=O)C1=C(C2CCN(S(=O)(=O)C[C@H]3CC[C@H](C(=O)O)CC3)CC2)NC(c2nccs2)=NC1c1ccc(F)c(F)c1Cl (stereo partly drawn) [Compound 424, trans-4-(((4-(6-(2-chloro-3,4-difluorophenyl)-5-(ethoxycarbonyl)-2-(thiazol-2-yl)-3,6-dihydropyrimidin-4-yl)piperidinyl)sulfonyl)methyl)cyclohexane-1-carboxylic Acid] | 8200 | 7
15 | COC(=O)C1=C([C@H]2CC[C@@H](S(=O)(=O)NC(C)C)CC2)NC(c2nccs2)=NC1c1ccc(F)c(F)c1Cl (single isomer, unassigned) [Compound 234B, (cis)-methyl 4-(2-chloro-3,4-difluorophenyl)-6-(4-(N-isopropylsulfamoyl)cyclohexyl)-2-(thiazol-2-yl)-1,4-dihydropyrimidine-5-carboxylate] | 16300 | 113
16 | CNC(=O)C1COC(C2=C(C(=O)OC)C(c3cccc(F)c3Cl)N=C(c3nccs3)N2)C1 (centres unmarked) [Compound 263, Methyl 4-(2-chloro-3-fluorophenyl)-6-(4-(methylcarbamoyl)-tetrahydrofuran-2-yl)-2-(thiazol-2-yl)-1,4-dihydropyrimidine-5-carboxylate] | 81100 | 150
17 | COC(=O)C1=C(C2CCC(N(C)C(C)=O)C2)NC(c2nccs2)=NC1c1cccc(F)c1Cl (centres unmarked) [Compound 170, Methyl 4-(2-chloro-3-fluorophenyl)-6-(3-(N-methylacetamido)cyclopentyl)-2-(thiazol-2-yl)-1,4-dihydropyrimidine-5-carboxylate] | 14900 | 533
18 | CCCS(=O)(=O)N[C@H]1CC[C@H](C2=C(C(=O)OC)C(c3ccc(F)cc3Cl)N=C(c3nccs3)N2)CC1 (single isomer, unassigned) [Compound 186A, (trans)-Methyl 4-(2-chloro-4-fluorophenyl)-6-(4-(propyl-sulfonamido)cyclohexyl)-2-(thiazol-2-yl)-1,4-dihydropyrimidine-5-carboxylate] | 83100 | 97
19 | COC(=O)C1=C(C2CCN(S(=O)(=O)[C@H]3C[C@H](C(=O)O)C3)CC2)NC(c2nccs2)=NC1c1cccc(F)c1Cl (stereo partly drawn) [Compound 331C, (trans)-3-((4-(6-(2-Chloro-3-fluorophenyl)-5-(methoxycarbonyl)-2-(thiazol-2-yl)-3,6-dihydropyrimidin-4-yl)piperidin-1-yl)sulfonyl)cyclobutane-carboxylic Acid] | > 100000 | 192
20 | CCOC(=O)C1=C(C2CCN(S(=O)(=O)CC3CC(C(=O)O)C3)CC2)NC(c2nccs2)=NC1c1ccc(F)c(F)c1Cl (centres unmarked) [Compound 480B, 3-(((4-(6-(2-Chloro-3,4-difluorophenyl)-5-(ethoxycarbonyl)-2-(thiazol-2-yl)-3,6-dihydropyrimidin-4-yl)piperidin-1-yl)sulfonyl)methyl)cyclobutanecarboxylic Acid] | 9900 | 22
21 | COC(=O)C1=C(C2CCN(S(=O)(=O)C3CC3)CC2)NC(c2nccs2)=NC1c1ccc(F)cc1Cl (centres unmarked) [Compound 100, Methyl 4-(2-chloro-4-fluorophenyl)-6-(1-(cyclopropylsulfonyl)-piperidin-4-yl)-2-(thiazol-2-yl)-1,4-dihydropyrimidine-5-carboxylate] | 7200 | 166
22 | COC(=O)C1=C([C@H]2CC[C@H](S(=O)(=O)NC(C)C)CC2)NC(c2nccs2)=NC1c1ccc(F)c(F)c1Cl (single isomer, unassigned) [Compound 234D, (trans)-methyl 4-(2-chloro-3,4-difluorophenyl)-6-(4-(N-isopropylsulfamoyl)cyclohexyl)-2-(thiazol-2-yl)-1,4-dihydropyrimidine-5-carboxylate] | 4200 | 13
